Several values for one entry are separate records, joined by “and”; a condition that tells them apart may be missing. Identical values can stand only once. Entries after “also recorded” stand apart in the source; their conditions may differ.
Test: Pharmacokinetic study of 100 (and metabolite endothal) in SD rats, iv; plasma, liver, brain
Details: for Endothal brain concentration / Endothal liver concentration / Endothal plasma concentration / concentration at 0.25 h / concentration at 1 h / concentration at 2 h / concentration at 10 h / concentration at 24 h / concentration at 6 h: SD rats; for AUCINF / AUClast / Cmax / Tmax / concentration at 0.25 h / concentration at 1 h / concentration at 2 h / concentration at 10 h / concentration at 24 h / concentration at 6 h: rat, in vivo, iv; for concentration at 0.25 h / concentration at 1 h / concentration at 2 h / concentration at 10 h / concentration at 24 h / concentration at 6 h: Endothal liver concentration
Experimental: 100 was administrated via iv route at 0.5, 1.0 and 1.5 mg/kg into SD rats. The blood, liver and brain tissue samples were collected at predetermined times from rats.
Twelve (12) female SD rats per group were dosed by iv with 100. The rats were fasted overnight prior to dosing, with free access to water. Foods were withheld for 2 hours post-dose. Blood, liver and brain tissue samples in two animals each group were collected at each time point, within 10% of the scheduled time for each time point. Two extra animals were used for analytic method development. Blood (>0.3 mL) were collected via aorta abdominalis in anaesthetic animalsinto tubes containing heparin at 15 min, 1, 2, 6, 10 and 24 hours after iv administration. Liver and brain tissues were collected immediately after animal death. The liver and brain tissues were excised and rinsed with cold saline to avoid blood residual. Upon collection, each sample was placed on ice and the blood samples were subsequently centrifuged (4° C., 11000 rpm, 5 min) to separate plasma. The obtained plasma, liver and brain tissue samples were stored at −70° C. until LC-MS/MS analysis.
AUC0-∞ (AUC/NF) is the area under the plasma concentration-time curve with last concentration extrapolated based on the elimination rate constant.

[1] = 100 iv 0.5 mg/kg, 24 hr, individual

For `O=C(O)C1C2CCC(O2)C1C(=O)O` (stereo not shown) [Endothal, 7-oxabicyclo[2.2.1]heptane-2,3-dicarboxylic acid], the Endothal brain concentration (100 iv 0.5 mg/kg, 0.25 hr, individual) was “BLQ”, the Endothal liver concentration (100 iv 0.5 mg/kg, 0.25 hr, individual, 0.5 mg/kg) was 382 ng/g and the Endothal brain concentration (100 iv 0.5 mg/kg, 0.25 hr, mean) was “BLQ”. For the same molecule, the Endothal brain concentration (100 iv 0.5 mg/kg, 1 hr, individual) was “BLQ”, the Endothal liver concentration (100 iv 0.5 mg/kg, 1 hr, individual, 0.5 mg/kg) was 131 ng/g and the Endothal brain concentration (100 iv 0.5 mg/kg, 1 hr, mean) was “BLQ”. For the same molecule, the Endothal brain concentration (100 iv 0.5 mg/kg, 2 hr, individual) was “BLQ”, the Endothal liver concentration (100 iv 0.5 mg/kg, 2 hr, individual, 0.5 mg/kg) was 273 ng/g and the Endothal brain concentration (100 iv 0.5 mg/kg, 2 hr, mean) was “BLQ”. The Endothal brain concentration (100 iv 0.5 mg/kg, 6 hr, individual) was “BLQ”, the Endothal plasma concentration (100 iv 0.5 mg/kg, 6 hr, individual, 0.5 mg/kg) was “BLQ” and the Endothal brain concentration (100 iv 0.5 mg/kg, 6 hr, mean) was “BLQ”. For the same molecule, the Endothal brain concentration (100 iv 0.5 mg/kg, 10 hr, individual) was “BLQ”, the Endothal brain concentration (100 iv 0.5 mg/kg, 10 hr, mean) was “BLQ” and the Endothal brain concentration [1] was “BLQ”. The Endothal plasma concentration [1] was “BLQ”, the Endothal liver concentration (100 iv 0.5 mg/kg, 24 hr, individual, 0.5 mg/kg) was 36.4 ng/g and the Endothal brain concentration (100 iv 0.5 mg/kg, 24 hr, mean) was “BLQ”. For the same molecule, the Endothal plasma concentration (100 iv 0.5 mg/kg, 24 hr, mean) was “BLQ”, the Endothal brain concentration (100 iv 1.0 mg/kg, 0.25 hr, individual) was “BLQ” and the Endothal liver concentration (100 iv 1.0 mg/kg, 0.25 hr, individual, 1 mg/kg) was 1320 ng/g. The Endothal brain concentration (100 iv 1.0 mg/kg, 0.25 hr, mean) was “BLQ”, the Endothal brain concentration (100 iv 1.0 mg/kg, 1 hr, individual) was “BLQ” and the Endothal liver concentration (100 iv 1.0 mg/kg, 1 hr, individual, 1 mg/kg) was 1380 ng/g and 618 ng/g. For the same molecule, the Endothal brain concentration (100 iv 1.0 mg/kg, 1 hr, mean) was “BLQ”, the Endothal brain concentration (100 iv 1.0 mg/kg, 2 hr, individual) was “BLQ” and the Endothal liver concentration (100 iv 1.0 mg/kg, 2 hr, individual, 1 mg/kg) was 1530 ng/g and 542 ng/g. The Endothal brain concentration (100 iv 1.0 mg/kg, 2 hr, mean) was “BLQ”, the Endothal brain concentration (100 iv 1.0 mg/kg, 6 hr, individual) was “BLQ” and the Endothal liver concentration (100 iv 1.0 mg/kg, 6 hr, individual, 1 mg/kg) was 241 ng/g. For the same molecule, the Endothal brain concentration (100 iv 1.0 mg/kg, 6 hr, mean) was “BLQ”, the Endothal brain concentration (100 iv 1.0 mg/kg, 10 hr, individual) was “BLQ” and the Endothal liver concentration (100 iv 1.0 mg/kg, 10 hr, individual, 1 mg/kg) was 94.2 ng/g. The Endothal brain concentration (100 iv 1.0 mg/kg, 10 hr, mean) was “BLQ”, the Endothal brain concentration (100 iv 1.0 mg/kg, 24 hr, individual) was “BLQ” and the Endothal liver concentration (100 iv 1.0 mg/kg, 24 hr, individual, 1 mg/kg) was 115 ng/g. For the same molecule, the Endothal brain concentration (100 iv 1.0 mg/kg, 24 hr, mean) was “BLQ”, the Endothal brain concentration (100 iv 1.5 mg/kg, 0.25 hr, individual) was “BLQ” and the Endothal liver concentration (100 iv 1.5 mg/kg, 0.25 hr, individual, 1.5 mg/kg) was 2160 ng/g. The Endothal brain concentration (100 iv 1.5 mg/kg, 0.25 hr, mean) was “BLQ”, the Endothal brain concentration (100 iv 1.5 mg/kg, 1 hr, individual) was “BLQ” and the Endothal liver concentration (100 iv 1.5 mg/kg, 1 hr, individual, 1.5 mg/kg) was 2976 ng/g. The Endothal brain concentration (100 iv 1.5 mg/kg, 1 hr, mean) was “BLQ”, the Endothal brain concentration (100 iv 1.5 mg/kg, 2 hr, individual) was “BLQ” and the Endothal liver concentration (100 iv 1.5 mg/kg, 2 hr, individual, 1.5 mg/kg) was 2226 ng/g. For the same molecule, the Endothal brain concentration (100 iv 1.5 mg/kg, 2 hr, mean) was “BLQ”, the Endothal brain concentration (100 iv 1.5 mg/kg, 6 hr, individual) was “BLQ” and the Endothal liver concentration (100 iv 1.5 mg/kg, 6 hr, individual, 1.5 mg/kg) was 1326 ng/g. For the same molecule, the Endothal brain concentration (100 iv 1.5 mg/kg, 6 hr, mean) was “BLQ”, the Endothal brain concentration (100 iv 1.5 mg/kg, 10 hr, individual) was “BLQ” and the Endothal liver concentration (100 iv 1.5 mg/kg, 10 hr, individual, 1.5 mg/kg) was 137 ng/g and 329 ng/g. The Endothal brain concentration (100 iv 1.5 mg/kg, 10 hr, mean) was “BLQ”, the Endothal brain concentration (100 iv 1.5 mg/kg, 24 hr, individual) was “BLQ” and the Endothal liver concentration (100 iv 1.5 mg/kg, 24 hr, individual, 1.5 mg/kg) was 52.1 ng/g. For the same molecule, the Endothal brain concentration (100 iv 1.5 mg/kg, 24 hr, mean) was “BLQ”, the “endothal detectable in brain samples” value (after single iv 100 at 0.5, 1.0 and 1.5 mg/kg) was “not detectable; also recorded: undetectable” and the AUCINF (female, SD, 0.5 mg/kg) was 828 ng·h/mL. It also gave an AUClast (female, SD, 0.5 mg/kg) of 546 ng·h/mL, a Cmax (female, SD, 0.5 mg/kg) of 577 ng/mL and a Tmax (female, SD, 0.5 mg/kg) of 15 min. It also gave a concentration at 0.25 h (female, SD, 0.5 mg/kg, 100 iv 0.5 mg/kg, 0.25 hr, individual) of 316 ng/g, a concentration at 0.25 h (female, SD, 0.5 mg/kg, 100 iv 0.5 mg/kg, 0.25 hr, mean) of 349 ng/g and a concentration at 1 h (female, SD, 0.5 mg/kg, 100 iv 0.5 mg/kg, 1 hr, individual) of 256 ng/g. For the same molecule, the concentration at 1 h (female, SD, 0.5 mg/kg, 100 iv 0.5 mg/kg, 1 hr, mean) was 194 ng/g, the concentration at 2 h (female, SD, 0.5 mg/kg, 100 iv 0.5 mg/kg, 2 hr, individual) was 168 ng/g and the concentration at 2 h (female, SD, 0.5 mg/kg, 100 iv 0.5 mg/kg, 2 hr, mean) was 220 ng/g. The concentration at 10 h (female, SD, 0.5 mg/kg, 100 iv 0.5 mg/kg, 10 hr, mean) was 124 ng/g, the concentration at 24 h (female, SD, 0.5 mg/kg, 100 iv 0.5 mg/kg, 24 hr, individual) was 32 ng/g and the concentration at 24 h (female, SD, 0.5 mg/kg, 100 iv 0.5 mg/kg, 24 hr, mean) was 34.2 ng/g. The AUCINF (female, SD, 1 mg/kg) was 2750 ng·h/mL, the AUClast (female, SD, 1 mg/kg) was 2487 ng·h/mL and the Tmax (female, SD, 1 mg/kg) was 15 min. For the same molecule, the concentration at 0.25 h (female, SD, 1 mg/kg, 100 iv 1.0 mg/kg, 0.25 hr, individual) was 768 ng/g, the concentration at 0.25 h (female, SD, 1 mg/kg, 100 iv 1.0 mg/kg, 0.25 hr, mean) was 1040 ng/g and the concentration at 1 h (female, SD, 1 mg/kg, 100 iv 1.0 mg/kg, 1 hr, mean) was 999 ng/g. For the same molecule, the concentration at 2 h (female, SD, 1 mg/kg, 100 iv 1.0 mg/kg, 2 hr, mean) was 1040 ng/g, the concentration at 6 h (female, SD, 1 mg/kg, 100 iv 1.0 mg/kg, 6 hr, individual) was 298 ng/g and the concentration at 6 h (female, SD, 1 mg/kg, 100 iv 1.0 mg/kg, 6 hr, mean) was 270 ng/g. It also gave a concentration at 10 h (female, SD, 1 mg/kg, 100 iv 1.0 mg/kg, 10 hr, individual) of 151 ng/g, a concentration at 10 h (female, SD, 1 mg/kg, 100 iv 1.0 mg/kg, 10 hr, mean) of 123 ng/g and a concentration at 24 h (female, SD, 1 mg/kg, 100 iv 1.0 mg/kg, 24 hr, individual) of 66.6 ng/g. For the same molecule, the concentration at 24 h (female, SD, 1 mg/kg, 100 iv 1.0 mg/kg, 24 hr, mean) was 90.8 ng/g, the AUCINF (female, SD, 1.5 mg/kg) was 4730 ng·h/mL and the AUClast (female, SD, 1.5 mg/kg) was 4476 ng·h/mL. For the same molecule, the Tmax (female, SD, 1.5 mg/kg) was 15 min, the concentration at 0.25 h (female, SD, 1.5 mg/kg, 100 iv 1.5 mg/kg, 0.25 hr, individual) was 2300 ng/g and the concentration at 0.25 h (female, SD, 1.5 mg/kg, 100 iv 1.5 mg/kg, 0.25 hr, mean) was 2230 ng/g. It also gave a concentration at 1 h (female, SD, 1.5 mg/kg, 100 iv 1.5 mg/kg, 1 hr, individual) of 2870 ng/g, a concentration at 1 h (female, SD, 1.5 mg/kg, 100 iv 1.5 mg/kg, 1 hr, mean) of 2920 ng/g and a concentration at 2 h (female, SD, 1.5 mg/kg, 100 iv 1.5 mg/kg, 2 hr, individual) of 2950 ng/g. It also gave a concentration at 2 h (female, SD, 1.5 mg/kg, 100 iv 1.5 mg/kg, 2 hr, mean) of 2590 ng/g, a concentration at 6 h (female, SD, 1.5 mg/kg, 100 iv 1.5 mg/kg, 6 hr, individual) of 1690 ng/g and a concentration at 6 h (female, SD, 1.5 mg/kg, 100 iv 1.5 mg/kg, 6 hr, mean) of 1510 ng/g. The concentration at 10 h (female, SD, 1.5 mg/kg, 100 iv 1.5 mg/kg, 10 hr, mean) was 233 ng/g, the concentration at 24 h (female, SD, 1.5 mg/kg, 100 iv 1.5 mg/kg, 24 hr, individual) was 75 ng/g and the concentration at 24 h (female, SD, 1.5 mg/kg, 100 iv 1.5 mg/kg, 24 hr, mean) was 63.5 ng/g. It also gave a Cmax (female, Sprague-Dawley, 1.5 mg/kg) of 349 to 2960 ng/g, an AUCINF (0.5 mg/kg) of 3095 ng·h/g and an AUClast (0.5 mg/kg) of 2598 ng·h/g. For the same molecule, the AUCINF (1 mg/kg) was 7370 ng·h/g, the AUClast (1 mg/kg) was 6673 ng·h/g and the AUCINF (1.5 mg/kg) was 18850 ng·h/g. For the same molecule, the AUClast (1.5 mg/kg) was 18434 ng·h/g.

— US20160264593A1 (priority 2013, published 2016)
